{"source": "patent US8993606B2", "about": "“Oral formulations for treating metal overload” (FerroKin BioSciences, Inc., priority 2011, dated 2015)", "key": {"healthy adult subjects": {"test_system": "healthy adult subjects", "test": "Safety: bioavailability study oral capsules versus oral solution in healthy subjects", "type": "in vivo", "description": "This study was a study in healthy adult subjects designed to compare the bioavailability of Compound 1 when administered as an oral capsule or solution. 24 subjects were enrolled and 22 completed the study: Subjects received a single oral dose of 16 mg/kg of Compound 1 as an oral capsule or as a solution. […] Treatment-emergent AEs were reported for 14 of the 24 subjects receiving Compound 1 (58%). […] TEAEs included headache (3 subjects), fever (2 subjects), nausea (2 subjects), lethargy (2 subjects), and loss of appetite (1 subject)."}, "[1]": {"test": "Preliminary analysis of pharmacokinetic results from the clinical studies as a whole", "type": "in vivo, human", "source_text": "The results were similar across the common doses in the 4 studies. […] See also FIG. 10."}, "[2]": {"test": "Aqueous solubility of salts", "type": "physicochemical", "conditions": "water; read-out: solubility in water", "source_text": "Typically, oral formulations described herein facilitate solubilizing an active ingredient (e.g., a desazadesferrithiocin analog, salt or polymorph) at a desired amount or rate suitable for the treatment of metal overload. As used herein, the term “solubility” is generally intended to be synonymous with the term “aqueous solubility,” and refers to the ability, and the degree of the ability, of a compound to dissolve in water or an aqueous solvent or buffer, as might be found under physiological conditions. Aqueous solubility is, in and of itself, a useful quantitative measure, but it has additional utility as a correlate and predictor, with some limitations which will be clear to those of skill in the art, of oral bioavailability. Typically, a soluble compound is generally desirable, and the more soluble, the better. In liquid formulations, solubility is typically reported in mg/mL, but other measures, such as g/g, may be used. Solubilities typically deemed acceptable may range from 1 mg/mL into the hundreds or thousands of mg/mL.\nSolubility may be measured under varying conditions. For example, it may be measured under conditions similar to those found in the body, such as at gastric pH or at physiologic or near-physiologic pH. “Gastric pH” as used herein means about pH 1. […]"}, "iron-overloaded subjects": {"test_system": "iron-overloaded subjects", "test": "Safety: multiple-dose study in iron-overloaded subjects", "type": "in vivo, human", "description": "Twenty iron-overloaded subjects were enrolled and completed the study. Four subjects in each cohort were orally administered 3, 8, 16, or 32 or 40 mg/kg/day of Compound 1 for 7 consecutive days."}, "healthy subjects": {"test_system": "healthy subjects", "test": "Safety: single-dose study in healthy subjects (30-75 mg/kg, 20 mg/kg bid)", "type": "in vivo", "description": "This was a single-center, double-blind, placebo-controlled study of ascending single oral doses of Compound 1. Six cohorts of 8 subjects (30 and 50 mg/kg single doses) or 5 subjects (40, 60, and 75 mg/kg single doses and 20 mg/kg×2 doses at 12 hour intervals) were dosed sequentially with Compound 1. Within each cohort, 7 or 4 subjects received Compound 1 and 1 subject received placebo. Subjects in the 20 mg/kg×2 doses cohort received a dose the evening prior to the study day (Day −1), approximately 12 hours prior to dosing on Day 1. The dose administered on Day −1 followed a 2-hour fast and that on Day 1 a 10-hour fast.\nThirty-one subjects were enrolled and completed the study: 26 received a single oral dose of Compound 1 [30 (7 subjects), 40 (4 subjects), 50 (7 subjects), 60 (4 subjects) and 75 mg/kg (4 subjects)], 4 subjects previously administered a single dose at 30 and 40 mg/kg received 20 mg/kg bid and 5 received placebo. […] Treatment-emergent adverse events were reported for 13 of the 26 subjects receiving Compound 1 (50%). TEAEs in the active groups included catheter site erythema or hematoma (3 subjects), fatigue (1 subject), headache (2 subjects), dysgueusia (1 subject), presyncope (1 subject), abdominal pain (1 subject), nausea (1 subject), back pain (1 subject), muscle spasm (1 subject), decreased appetite (1 subject), chromaturia (1 subject)."}, "[3]": {"conditions": "single oral dose 30-75 mg/kg, 20 mg/kg bid"}}}
{"smiles": "COCCOCCOCCOc1cccc(C2=N[C@@](C)(C(=O)O)CS2)c1O", "note": "[Compound 1, (S)-4,5-Dihydro-2-[2-hydroxy-3-(3,6,9-trioxadecyloxy)phenyl]-4-methyl-4-thiazolecarboxylate magnesium hydroxide]", "values": [{"measurement": "subjects with treatment-emergent AEs", "setting": "healthy adult subjects; 14 of the 24 subjects", "value": 58, "unit": "%"}, {"measurement": "TEAE fever", "setting": "healthy adult subjects; 24 subjects", "value": 2, "unit": "subjects"}, {"measurement": "TEAE headache", "setting": "healthy adult subjects; 24 subjects", "value": 3, "unit": "subjects"}, {"measurement": "TEAE lethargy", "setting": "healthy adult subjects; 24 subjects", "value": 2, "unit": "subjects"}, {"measurement": "TEAE loss of appetite", "setting": "healthy adult subjects; 24 subjects", "value": 1, "unit": "subject"}, {"measurement": "TEAE nausea", "setting": "healthy adult subjects; 24 subjects", "value": 2, "unit": "subjects"}, {"measurement": "deaths, SAEs, withdrawals as the result of an AE", "setting": "healthy adult subjects; single oral dose 16 mg/kg", "value": "no deaths, no SAEs, and no withdrawals as the result of an AE"}, {"measurement": "intensity of all AEs", "setting": "healthy adult subjects; single oral dose 16 mg/kg", "value": "mild or moderate intensity"}, {"measurement": "tolerability", "setting": "healthy adult subjects; single oral dose 16 mg/kg, capsule or solution", "value": "well tolerated"}, {"measurement": "dose proportionality", "setting": "[1]; dosing range of 3 to 50 mg/kg, preliminary analysis", "value": "dose-proportionality in Cmax and AUC"}, {"measurement": "Tmax", "setting": "[1]; human, plasma, oral, in each study", "value": "~1", "unit": "h"}, {"measurement": "solubility", "setting": "[2]", "value": "≥ 48", "unit": "mg/mL"}, {"measurement": "TEAE QT prolonged", "setting": "iron-overloaded subjects; 1 subject", "value": 5, "unit": "%"}, {"measurement": "TEAE abdominal pain upper", "setting": "iron-overloaded subjects; 1 subject", "value": 5, "unit": "%"}, {"measurement": "TEAE blood urine present", "setting": "iron-overloaded subjects; 1 subject", "value": 5, "unit": "%"}, {"measurement": "TEAE chromaturia", "setting": "iron-overloaded subjects; 1 subject", "value": 5, "unit": "%"}, {"measurement": "TEAE dizziness", "setting": "iron-overloaded subjects; 1 subject", "value": 5, "unit": "%"}, {"measurement": "TEAE feeling hot", "setting": "iron-overloaded subjects; 1 subject", "value": 5, "unit": "%"}, {"measurement": "TEAE pruritus", "setting": "iron-overloaded subjects; 1 subject", "value": 5, "unit": "%"}, {"measurement": "TEAE tachycardia", "setting": "iron-overloaded subjects; 1 subject", "value": 5, "unit": "%"}, {"measurement": "TEAE flatulence", "setting": "iron-overloaded subjects; 2 subjects", "value": 10, "unit": "%"}, {"measurement": "tolerability", "setting": "iron-overloaded subjects; 3, 8, 16, 32 or 40 mg/kg/day for 7 consecutive days", "value": "generally well tolerated"}, {"measurement": "TEAE headache", "setting": "iron-overloaded subjects; 5 subjects", "value": 25, "unit": "%"}, {"measurement": "TEAE urine color abnormal", "setting": "iron-overloaded subjects; 8 subjects, related to study drug", "value": 40, "unit": "%"}, {"measurement": "subjects with at least 1 TEAE", "setting": "iron-overloaded subjects; 20 subjects, majority mild and unrelated to study drug", "value": 90, "unit": "%"}, {"measurement": "QTcB interval prolongation", "setting": "iron-overloaded subjects; one subject, Day 7 of treatment, not observed with QTcF", "value": 20, "unit": "ms"}, {"measurement": "SAE recorded", "setting": "iron-overloaded subjects; subject at 3 mg/kg/day, sickle cell crisis, not related to treatment", "value": 1, "unit": "SAE"}, {"measurement": "subjects with treatment-emergent adverse events", "setting": "healthy subjects; 13 of the 26 subjects", "value": 50, "unit": "%"}, {"measurement": "TEAE abdominal pain", "setting": "healthy subjects; active groups, 26 subjects", "value": 1, "unit": "subject"}, {"measurement": "TEAE back pain", "setting": "healthy subjects; active groups, 26 subjects", "value": 1, "unit": "subject"}, {"measurement": "TEAE catheter site erythema or hematoma", "setting": "healthy subjects; active groups, 26 subjects", "value": 3, "unit": "subjects"}, {"measurement": "TEAE chromaturia", "setting": "healthy subjects; active groups, 26 subjects", "value": 1, "unit": "subject"}, {"measurement": "TEAE decreased appetite", "setting": "healthy subjects; active groups, 26 subjects", "value": 1, "unit": "subject"}, {"measurement": "TEAE dysgueusia", "setting": "healthy subjects; active groups, 26 subjects", "value": 1, "unit": "subject"}, {"measurement": "TEAE fatigue", "setting": "healthy subjects; active groups, 26 subjects", "value": 1, "unit": "subject"}, {"measurement": "TEAE headache", "setting": "healthy subjects; active groups, 26 subjects", "value": 2, "unit": "subjects"}, {"measurement": "TEAE muscle spasm", "setting": "healthy subjects; active groups, 26 subjects", "value": 1, "unit": "subject"}, {"measurement": "TEAE nausea", "setting": "healthy subjects; active groups, 26 subjects", "value": 1, "unit": "subject"}, {"measurement": "TEAE presyncope", "setting": "healthy subjects; active groups, 26 subjects", "value": 1, "unit": "subject"}, {"measurement": "intensity of all AEs", "setting": "healthy subjects; after treatment", "value": "mild intensity"}, {"measurement": "serious side effects in humans", "setting": "healthy subjects; daily dose higher than 40 mg/kg of body weight", "value": "no serious side effects were observed"}, {"measurement": "deaths, SAEs, withdrawals due to AEs", "setting": "healthy subjects; [3]", "value": "no deaths, SAEs), or withdrawals due to AEs"}, {"measurement": "tolerability", "setting": "healthy subjects; [3]", "value": "well tolerated"}]}
